The target of this assay is 20S proteasome (Oryctolagus cuniculus, UniProt G1T4Q9). In words: fluorogenic chymotrypsin-like activity assay. Type of assay: biochemical. The conditions noted are these: chymotrypsin-like site; control incubation without added SAM/SAH.

*1 amine or outer side, *2 acyl side, *3 side chain or, on linkers, in order; H or OH if unused. Where a SMILES comes first, the peptide text is derived from it. The star is where a group is joined. AMC = Cc1cc(=O)oc2cc(N*)ccc12; Suc = O=C(CCC(=O)[*:2])[*:1]

Consider `Cc1cc(=O)oc2cc(NC(=O)[C@H](Cc3ccc(O)cc3)NC(=O)[C@@H](NC(=O)[C@H](CC(C)C)NC(=O)[C@H](CC(C)C)NC(=O)CCC(=O)O)C(C)C)ccc12` [Suc-LLVY-AMC] (Suc-LLVY-{AMC}), for which the “fluorogenic chymotrypsin-like activity assay” value is listed as “activity was detected in vitro using the fluorogenic substrate Suc-LLVY-AMC”.
